Legend:
[1] = biological target: T1, cyclooxygenase (Bos taurus, UniProt O62664); assay: Cyclooxygenase Enzyme Assay, bovine seminal vesicle (BSV), PGE2 formation; format: biochemical; settings: bovine seminal vesicle powder; 100 μM arachidonic acid, 20 minutes
T1 construct: The assay consists of incubating 2 mg bovine seminal vesicle powder; from tissue; host or cells: bovine seminal vesicle powder
T1 sequence (O62664 25-600): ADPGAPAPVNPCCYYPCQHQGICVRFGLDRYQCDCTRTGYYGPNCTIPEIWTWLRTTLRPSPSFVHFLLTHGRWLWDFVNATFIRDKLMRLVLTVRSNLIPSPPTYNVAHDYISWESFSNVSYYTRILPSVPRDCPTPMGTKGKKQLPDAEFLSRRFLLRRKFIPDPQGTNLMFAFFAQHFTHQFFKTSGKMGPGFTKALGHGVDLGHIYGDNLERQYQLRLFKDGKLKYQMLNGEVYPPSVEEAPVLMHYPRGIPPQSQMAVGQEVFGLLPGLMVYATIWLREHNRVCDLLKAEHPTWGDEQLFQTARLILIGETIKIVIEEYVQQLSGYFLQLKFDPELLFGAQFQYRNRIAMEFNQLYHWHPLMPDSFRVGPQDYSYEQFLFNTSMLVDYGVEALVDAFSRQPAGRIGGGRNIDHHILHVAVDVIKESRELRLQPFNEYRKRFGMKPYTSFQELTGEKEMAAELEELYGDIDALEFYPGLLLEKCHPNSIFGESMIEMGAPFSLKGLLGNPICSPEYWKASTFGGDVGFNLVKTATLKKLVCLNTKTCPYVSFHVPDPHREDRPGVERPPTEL
Description: Cyclooxygenase Enzyme Assay
Additionally, inhibition of cyclooxygenase is considered a measure of relevance to the pathophysiology of the above noted diseases.
The assay consists of incubating 2 mg bovine seminal vesicle powder with 2 mM epinephrine, 2.5 mM reduced glutathione, 100 μM arachidonic acid, and the test agent for 20 minutes. The reaction mixture is acidified and extracted with ethyl acetate (3×1.0 ml) and the pooled extract is evaporated to dryness using a Speed Vac Concentrator or under a stream of nitrogen. The residue was dissolved in ethanol.

[2] = biological target: T2, 5-lipoxygenase (Homo sapiens, UniProt P09917); assay: 5-Lipoxygenase Assay Using Isolated Human Leukocytes (5LOA2), 5-HETE formation; format: cell-based; settings: inhibition of 5-HETE formation, arachidonic acid 20 μM, A23187 10 μM, read-out: 5-LO(IC50 in μM)
T2 construct: The formation of 5-HETE in human leukocytes is considered a measure of 5-lipoxygenase activity; endogenous in cells; host or cells: leukocytes isolated from fresh human blood
T2 sequence (P09917 1-674): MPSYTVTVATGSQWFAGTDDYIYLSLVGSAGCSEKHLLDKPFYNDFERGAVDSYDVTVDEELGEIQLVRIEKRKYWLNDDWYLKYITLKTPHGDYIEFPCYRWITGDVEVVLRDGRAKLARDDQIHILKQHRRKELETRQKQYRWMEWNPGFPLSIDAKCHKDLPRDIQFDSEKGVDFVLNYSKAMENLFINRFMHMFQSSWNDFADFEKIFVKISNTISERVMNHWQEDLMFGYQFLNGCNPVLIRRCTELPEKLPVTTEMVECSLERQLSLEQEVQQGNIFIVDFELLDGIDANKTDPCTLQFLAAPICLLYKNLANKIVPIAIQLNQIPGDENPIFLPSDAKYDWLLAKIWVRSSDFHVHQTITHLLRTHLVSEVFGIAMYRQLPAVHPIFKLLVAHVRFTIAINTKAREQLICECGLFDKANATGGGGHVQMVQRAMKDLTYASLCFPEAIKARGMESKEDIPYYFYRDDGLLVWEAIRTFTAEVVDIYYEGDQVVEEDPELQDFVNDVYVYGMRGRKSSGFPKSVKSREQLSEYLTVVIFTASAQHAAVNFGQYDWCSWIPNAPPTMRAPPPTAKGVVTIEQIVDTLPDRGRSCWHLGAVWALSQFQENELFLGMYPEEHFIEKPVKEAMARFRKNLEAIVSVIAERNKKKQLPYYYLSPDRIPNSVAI
Description: 5-Lipoxygenase Assay Using Isolated Human Leukocytes (5LOA2)
The formation of 5-HETE in human leukocytes is considered a measure of 5-lipoxygenase activity. The protocol is described in the following.
Fresh heparinized or EDTA treated human blood is mixed with 6% dextran-3% dextrose in isotonic saline in the ratio 0.25 ml dextran solution per 1.0 ml blood. After mixing the blood is allowed to sit at room temperature for about 90 minutes while the RBC's settle. During this period, the plasma is removed with a plastic pipette to nalgens tubes.
The pellet, consisting of leukocytes and erythrocytes, is treated with 10 ml 0.87% ammonium chloride at room temperature for four minutes, lysing the red cells. At the end of four minutes the cells are diluted with a 2x volume of phosphate buffered saline, pH 7.4, and centrifuged for ten minutes. The cells are washed three times with the phosphate buffered saline. Any of the pelleted cell matter which is not easily resuspended is discarded during the washings--the material contains platelets (12-lipoxygenase activity).
After washing, the cells are resuspended in phosphate buffered saline containing 1.0 mM 'calcium and 0.5 mM magnesium. After counting, the cells are diluted to 1.5-2.0×10^7 leukocytes per milliliter.
To each polypropylene reaction tube is added 0.48 ml leukocytes in Ca-Mg phosphate buffered saline, pH 7.4; 1-5 μl test compound dissolved in DMSO and buffer; or DMSO for control tubes.
The tubes preincubate at 37° C. for five minutes.
The reaction is started by adding 20 μl of the following, 0.5 μl, 20 mM arachidonic acid--final concentration=20 μM; 1 μl, 5 mM calcium ionophore A23187--final concentration=10 μM; and 18.5 μl buffer.
The reaction proceeds for five minutes, then is stopped by adding 0.5 ml, 0.5 mM ice-cold Tris buffer, pH 8.0. The tubes are chilled on ice for ten minutes and then extracted three times with a total of 3.5 ml ethyl acetate (3.0 ml removed).
The tubes can be stored at this point. For extended storage, the tubes should be filled with nitrogen.
The ethyl acetate is evaporated with a Sorvall Speed-Vac. The residue is dissolved in ethanol. The tubes can also be stored at this point at -20° C. under nitrogen.
A portion of the ethanol solution is injected into the HPLC system for 5-HETE quantitation.
Injections are made automatically with a Waters WISP 710B. The pump is a Spectra Physics SP8700. […] An RP C-18 column is used. The solvent system is isocratic; the solvent is 70% methanol and 30% 0.01M sodium acetate, pH 5.7, pumped at 1.0 ml/min. […] Using a 15 cm Alltech Nucleosil C-18 5 μM column provides for a sample turnaround time of about 16 minutes.

Row | SMILES | IC50 [1] [µM] | IC50 [2] [µM]
1 | COc1cc(C=Cc2cc(C=Cc3ccc(O)c(OC)c3)[nH]n2)ccc1O [Example 1, 3,5-Bis[β-(4'-hydroxy-3'-methoxyphenyl)ethenyl]pyrazole] | 66 | 1
2 | Cc1cc(C=Cc2ccc(O)c(Cl)c2)n[nH]1 [Example 7, 3-[β-(4'-Hydroxy-3'-chlorophenyl)ethenyl]-5-methylpyrazole] | 34 | 5.5
3 | COc1cc(C=Cc2cc(C)n[nH]2)ccc1O [Example 5, 3-[β-(4'-Hydroxy-3'-methoxyphenyl)ethenyl]-5-methylpyrazole] | 33 | 7.1
